Data on 16 compounds can be found in patent publication US9346809B2 (LEO PHARMA A/S, priority 2009, dated 2016).

Structures are written as SMILES. Where two headings read alike, the source gives them in different places.

Common to all, as to format: biochemical
Assay [1] concerns the target T1, JAK1 (aa 850-1154, catalytic domain, GST-tag) (Homo sapiens, UniProt P23458).
T1 construct: JAK1 (aa 850-1154) and TYK2 (aa 871-1187) are expressed with an N-terminally fused GST-tag; GST (N); purchased Carna Biosciences, Inc; host or cells: baculovirus expression system
Put plainly: JAK kinase assay (HTRF, phosphorylation of TK substrate-biotin), JAK1. The note with it: ATP at Km (7 μM). As for the experimental part: (§1) Human baculovirus-expressed JAK1, 2, 3 and TYK2 were purchased from Carna Biosciences, Inc. All four purified enzymes contain only the catalytic domain. JAK1 (aa 850-1154) and TYK2 (aa 871-1187) are expressed with an N-terminally fused GST-tag, and JAK2 and JAK3 with an N-terminally fused His-tag.
(§2) Inhibition of phosphorylation of a synthetic peptide was measured in an HTRF-based assay using the TK substrate-Biotin from the Cisbio HTRFKinEASE TK kit. First, 2 μl of TK solution (TK substrate-biotin in kinase buffer [1× enzymatic buffer from HTRFKinEASE TK kit, 1 mM DTT]) is added to a plate containing 1 μl prediluted compound (final assay concentration DMSO: 0.75%). Then, 5 μl kinase-ATP mix (prepared in kinase buffer) is added to the wells and the plates are incubated at RT for 20-30 min. For all four kinases a concentration of ATP that corresponded to the Km for ATP was used. The final concentrations of buffers, substrate, kinase and ATP were: JAK1: 50 mM Hepes buffer pH 7.0, 0.01% BSA, 10 mM MgCl2, 1 mM DTT, 7 μM ATP, 50 nM SEB, 1 μM TK Substrate-Biotin and 5 ng JAK1; JAK2: 50 mM Hepes buffer pH 7.0, 0.01% BSA, 5 mM MgCl2, 1 mM DTT, 4 μM ATP, 1 μM TK Substrate-Biotin and 0.1 ng JAK2; JAK3: 50 mM Hepes buffer pH 7.0, 0.01% BSA, 5 mM MgCl2, 1 mM DTT, 2 μM ATP, 1 μM TK Substrate-Biotin and 0.3 ng JAK3; TYK2: 50 mM Hepes buffer pH 7.0, 0.01% BSA, 5 mM MgCl2, 1 mM DTT, 13 μM ATP, 50 nM SEB, 1 μM TK Substrate-Biotin and 0.8 ng TYK2. Thereafter, the kinase reaction is stopped by adding 4 μl detection mix (final concentrations: 50 mM Hepes buffer pH 7.0, 0.01% BSA, 0.8 M KF, 20 mM EDTA, 42 nM Streptavidin-XL665 and 1:400 STK Ab Cryptate) and the plates are incubated overnight in the dark. The HTRF signal is read using an Envision plate reader.
(§3) In Table 1 selected JAK kinase inhibitory activities are listed with the following indicators: I: EC50<100 nM, II: 100 nM≦EC50≦500 nM and III: EC50>500 nM
(In general: In TR-FRET formats the signal depends on donor and acceptor labels being close together.)

Assay [2] has as its target T2, JAK2 (catalytic domain, His-tag) (Homo sapiens, UniProt O60674).
T2 construct: All four purified enzymes contain only the catalytic domain; His (N); purchased Carna Biosciences, Inc; host or cells: baculovirus expression system
Put plainly: JAK kinase assay (HTRF, phosphorylation of TK substrate-biotin), JAK2. The note with it: ATP at Km (4 μM). As for the experimental part: as §1, §2, §3

For assay [3], the target named is T3, JAK3 (catalytic domain, His-tag) (Homo sapiens, UniProt P52333).
T3 construct: All four purified enzymes contain only the catalytic domain; His (N); purchased Carna Biosciences, Inc; host or cells: baculovirus expression system
T3 sequence (P52333 822-1111 limits assumed): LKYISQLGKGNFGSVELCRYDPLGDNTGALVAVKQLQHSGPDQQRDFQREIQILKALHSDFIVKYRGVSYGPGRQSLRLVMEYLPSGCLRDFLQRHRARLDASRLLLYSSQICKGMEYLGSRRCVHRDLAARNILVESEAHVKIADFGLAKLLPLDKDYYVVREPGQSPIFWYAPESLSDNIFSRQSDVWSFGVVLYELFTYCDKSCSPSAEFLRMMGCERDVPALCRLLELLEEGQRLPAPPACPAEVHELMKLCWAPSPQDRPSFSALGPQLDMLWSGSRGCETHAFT
Put plainly: JAK kinase assay (HTRF, phosphorylation of TK substrate-biotin), JAK3. The note with it: ATP at Km (2 μM). As for the experimental part:
as §1, §2, §3

The target in assay [4] is T4, TYK2 (aa 871-1187, catalytic domain, GST-tag) (Homo sapiens, UniProt P29597).
T4 construct: JAK1 (aa 850-1154) and TYK2 (aa 871-1187) are expressed with an N-terminally fused GST-tag; GST (N); purchased Carna Biosciences, Inc; host or cells: baculovirus expression system
T4 sequence (P29597 871-1187): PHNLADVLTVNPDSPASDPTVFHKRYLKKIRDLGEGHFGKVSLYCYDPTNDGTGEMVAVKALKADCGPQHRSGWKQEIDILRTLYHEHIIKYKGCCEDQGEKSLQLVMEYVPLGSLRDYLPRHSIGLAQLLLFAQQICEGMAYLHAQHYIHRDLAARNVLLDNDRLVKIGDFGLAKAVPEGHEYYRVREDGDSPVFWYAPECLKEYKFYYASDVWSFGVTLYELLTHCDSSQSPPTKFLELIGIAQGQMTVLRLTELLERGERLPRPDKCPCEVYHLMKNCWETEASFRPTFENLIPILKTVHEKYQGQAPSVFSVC
In words: JAK kinase assay (HTRF, phosphorylation of TK substrate-biotin), TYK2. The following applies: ATP at Km (13 μM). As for the experimental part:
as §1, §2, §3

[5] abbreviates: read-out: JAK1 kinase inhibitory activity (EC50 indicator).
The mark [6] stands for this setting: read-out: JAK2 kinase inhibitory activity (EC50 indicator).
The mark [7] stands for this setting: read-out: JAK3 kinase inhibitory activity (EC50 indicator).
Setting [8] is: read-out: TYK2 kinase inhibitory activity (EC50 indicator).
Setting [9] is: HTRF assay, read-out: JAK1 kinase inhibitory activity (EC50).
The mark [10] stands for this setting: HTRF assay, read-out: JAK2 kinase inhibitory activity (EC50).
Where [11] appears, read: HTRF assay, read-out: JAK3 kinase inhibitory activity (EC50).
[12] abbreviates: HTRF assay, read-out: TYK2 kinase inhibitory activity (EC50).
Setting [13] is: HTRF assay, read-out: JAK1 kinase inhibitory activity (EC50 indicator).
[14] abbreviates: HTRF assay, read-out: JAK2 kinase inhibitory activity (EC50 indicator).
Setting [15] is: HTRF assay, read-out: JAK3 kinase inhibitory activity (EC50 indicator).
The mark [16] stands for this setting: HTRF assay, read-out: TYK2 kinase inhibitory activity (EC50 indicator).

T1 sequence (P23458 850-1154): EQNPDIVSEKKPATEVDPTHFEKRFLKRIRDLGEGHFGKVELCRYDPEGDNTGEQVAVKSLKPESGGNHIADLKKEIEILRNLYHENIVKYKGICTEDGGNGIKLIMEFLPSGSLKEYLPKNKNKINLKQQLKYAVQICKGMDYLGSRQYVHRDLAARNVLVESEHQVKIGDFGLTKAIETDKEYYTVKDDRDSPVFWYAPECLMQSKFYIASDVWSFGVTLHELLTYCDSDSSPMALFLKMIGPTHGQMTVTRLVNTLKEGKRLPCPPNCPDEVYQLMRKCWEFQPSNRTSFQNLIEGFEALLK
T2 sequence (O60674 849-1124 limits assumed): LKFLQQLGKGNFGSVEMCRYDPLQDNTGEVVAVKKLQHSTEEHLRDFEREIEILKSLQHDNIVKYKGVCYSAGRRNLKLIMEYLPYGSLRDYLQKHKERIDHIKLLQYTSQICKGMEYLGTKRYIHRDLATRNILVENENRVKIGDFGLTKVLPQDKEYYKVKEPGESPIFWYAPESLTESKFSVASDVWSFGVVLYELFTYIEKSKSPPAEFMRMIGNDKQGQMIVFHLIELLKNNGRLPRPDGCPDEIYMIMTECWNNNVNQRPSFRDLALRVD

As for `N#Cc1ccc(CC(=O)N2[C@@H]3CC[C@@H]2CN(c2ncnc4[nH]ccc24)C3)cc1` [Example 180, 4-{2-Oxo-2-[3-(7H-pyrrolo[2,3-d]pyrimidin-4-yl)-3,8-diaza-bicyclo[3.2.1]oct-8-yl]-ethyl}-benzonitrile], the EC50 in assay [1] (setting [5]) was 100 to 500 nM; in assay [2] (setting [6]) it was 100 to 500 nM; in assay [3] (setting [7]), 100 to 500 nM; in assay [4] (setting [8]) it was over 500 nM.
As for `O=C(c1ccc(CO)cc1)N1CCN(c2ncnc3[nH]ccc23)CC12CC2` [Example 155, (4-Hydroxymethyl-phenyl)-[7-(7H-pyrrolo[2,3-d]pyrimidin-4-yl)-4,7-diaza-spiro[2.5]oct-4-yl]-methanone], the EC50 in assay [1] (setting [5]) is under 100 nM; in assay [2] (setting [6]) it was under 100 nM; in assay [3] (setting [7]), 100 to 500 nM; in assay [4] (setting [8]) it was 100 to 500 nM.
In the case of `O=C(CNc1ccccc1)N1CCN(c2ncnc3[nH]ccc23)CC12CC2` [Example 451, 2-Phenylamino-1-[7-(7H-pyrrolo[2,3-d]pyrimidin-4-yl)-4,7-diaza-spiro[2.5]oct-4-yl]-ethanone], the EC50 in assay [1] (setting [9]) is under 100 nM; in assay [2] (setting [10]), under 100 nM; in assay [3] (setting [11]) it was 100 to 500 nM; in assay [4] (setting [12]) it was over 500 nM.
For the compound `N#Cc1ccc2[nH]c(C(=O)N3C4CCC3CN(c3ncnc5[nH]ccc35)C4)cc2c1` [Example 129, 2-[3-(7H-Pyrrolo[2,3-d]pyrimidin-4-yl)-3,8-diaza-bicyclo[3.2.1]octane-8-carbonyl]-1H-indole-5-carbonitrile], the EC50 is under 100 nM in assay [1] (setting [5]), under 100 nM in assay [2] (setting [6]), under 100 nM in assay [3] (setting [7]) and over 500 nM in assay [4] (setting [8]).
Take `O=C(Cc1ccccc1)N1CCN(c2ncnc3[nH]ccc23)CC12CC2` [Example 152, 2-Phenyl-1-[7-(7H-pyrrolo[2,3-d]pyrimidin-4-yl)-4,7-diaza-spiro[2.5]oct-4-yl]-ethanone]: the EC50 in assay [1] (setting [5]) is under 100 nM; in assay [2] (setting [6]), under 100 nM; in assay [3] (setting [7]), under 100 nM; in assay [4] (setting [8]), 100 to 500 nM.
As for `O=C(c1ccc2[nH]cnc2c1)N1CCN(c2ncnc3[nH]ccc23)CC12CC2` [Example 162, (1H-Benzoimidazol-5-yl)-[7-(7H-pyrrolo[2,3-d]pyrimidin-4-yl)-4,7-diaza-spiro[2.5]oct-4-yl]-methanone], the EC50 in assay [1] (setting [5]) was under 100 nM; in assay [2] (setting [6]), under 100 nM; in assay [3] (setting [7]), 100 to 500 nM; in assay [4] (setting [8]) it was over 500 nM.
On to `CN(C1CCCCC1)S(=O)(=O)N1CCN(c2ncnc3[nH]ccc23)CC12CC2` [Example 460, 7-(7H-Pyrrolo[2,3-d]pyrimidin-4-yl)-4,7-diaza-spiro[2.5]octane-4-sulfonic acid cyclohexyl-methyl-amide], for which the EC50 in assay [1] (setting [9]) was under 100 nM; in assay [2] (setting [10]), under 100 nM; in assay [3] (setting [11]), 100 to 500 nM; in assay [4] (setting [12]), 100 to 500 nM.
With `O=C(c1cc(O)cs1)N1CCN(c2ncnc3[nH]ccc23)CC12CC2` [Example 385, (4-Hydroxy-thiophen-2-yl)-[7-(7H-pyrrolo[2,3-d]pyrimidin-4-yl)-4,7-diaza-spiro[2.5]oct-4-yl]-methanone], the EC50 in assay [1] (setting [13]), in assay [2] (setting [14]), in assay [3] (setting [15]) and in assay [4] (setting [16]) was under 100 nM each time.
Consider `N#Cc1ccc(C(=O)N2CCN(c3ccnc4[nH]ccc34)CC23CC3)cc1` [Example 226, 4-[7-(1H-Pyrrolo[2,3-b]pyridin-4-yl)-4,7-diaza-spiro[2.5]octane-4-carbonyl]-benzonitrile], for which the EC50 in assay [1] (setting [13]) was under 100 nM; in assay [2] (setting [14]), 100 to 500 nM; in assay [3] (setting [15]), over 500 nM; in assay [4] (setting [16]), over 500 nM.
Take `COCCOCC(=O)Nc1nc(N2CCN(C(=O)Cc3ccc(C#N)cc3)C3(CC3)C2)c2cc[nH]c2n1` [Example 96, N-(4-{4-[2-(4-Cyano-phenyl)-acetyl]-4,7-diaza-spiro[2.5]oct-7-yl}-7H-pyrrolo[2,3-d]pyrimidin-2-yl)-2-(2-methoxy-ethoxy)-acetamide]: the concentration giving a half-maximal response (EC50) in assay [1] (setting [5]) was under 100 nM; in assay [2] (setting [6]), under 100 nM; in assay [3] (setting [7]) it was 100 to 500 nM; in assay [4] (setting [8]), over 500 nM.
In the case of `COCCC(=O)N1CCN(c2ncnc3[nH]ccc23)CC12CC2` [Example 456, 3-Methoxy-1-[7-(7H-pyrrolo[2,3-d]pyrimidin-4-yl)-4,7-diaza-spiro[2.5]oct-4-yl]-propan-1-one], the EC50 in assay [1] (setting [9]) is 100 to 500 nM; in assay [2] (setting [10]), 100 to 500 nM; in assay [3] (setting [11]), 100 to 500 nM; in assay [4] (setting [12]), over 500 nM.
In the case of `O=C(Cc1ccncc1)N1[C@@H]2CC[C@@H]1CN(c1ncnc3[nH]ccc13)C2` [Example 171, 2-Pyridin-4-yl-1-[3-(7H-pyrrolo[2,3-d]pyrimidin-4-yl)-3,8-diaza-bicyclo[3.2.1]oct-8-yl]-ethanone], the EC50 in assay [1] (setting [5]) was 100 to 500 nM; in assay [2] (setting [6]), 100 to 500 nM; in assay [3] (setting [7]), over 500 nM; in assay [4] (setting [8]), over 500 nM.
With `CC1CN(C(=O)CCC#N)C2(CC2)CN1c1ncnc2[nH]ccc12` (stereo not shown) [Example 150, 4-[6-Methyl-7-(7H-pyrrolo[2,3-d]pyrimidin-4-yl)-4,7-diaza-spiro[2.5]oct-4-yl]-4-oxo-butyronitrile], the EC50 in assay [1] (setting [5]) is under 100 nM; in assay [2] (setting [6]) it was under 100 nM; in assay [3] (setting [7]) it was under 100 nM; in assay [4] (setting [8]) it was over 500 nM.
`Cc1cncc(C(=O)N2[C@@H]3CC[C@H]2CN(c2ncnc4[nH]ccc24)C3)n1` [Example 73, (6-Methyl-pyrazin-2-yl)-[3-(7H-pyrrolo[2,3-d]pyrimidin-4-yl)-3,8-diaza-bicyclo[3.2.1]oct-8-yl]-methanone]: the EC50 was under 100 nM in assay [1] (setting [5]), 100 to 500 nM in assay [2] (setting [6]), 100 to 500 nM in assay [3] (setting [7]) and over 500 nM in assay [4] (setting [8]).
For `Cc1cc(C(=O)N2CCN(c3ncnc4[nH]ccc34)CC23CC3)ccc1S(N)(=O)=O` [Example 380, 2-Methyl-4-[7-(7H-pyrrolo[2,3-d]pyrimidin-4-yl)-4,7-diaza-spiro[2.5]octane-4-carbonyl]-benzenesulfonamide], the EC50 in assay [1] (setting [13]), in assay [2] (setting [14]), in assay [3] (setting [15]) and in assay [4] (setting [16]) was under 100 nM throughout.
`O=C(c1ccccn1)N1CCN(c2ncnc3[nH]ccc23)CC12CC2` [Example 2, Pyridin-2-yl-[7-(7H-pyrrolo[2,3-d]pyrimidin-4-yl)-4,7-diazaspiro[2.5]oct-4-yl]methanone]: the EC50 in assay [1] (setting [5]) is under 100 nM; in assay [2] (setting [6]), under 100 nM; in assay [3] (setting [7]) it was 100 to 500 nM; in assay [4] (setting [8]) it was 100 to 500 nM.

For orientation: EC50 means the concentration giving half of the maximal effect.
